Assay results taken from article PMC8217550, “ERRγ enhances cardiac maturation with T-tubule formation in human iPSC-derived cardiomyocytes” (Nature Communications, 2021).

Biological target: T1, estrogen-related receptor gamma (ERRγ) (Homo sapiens, UniProt P62508)
T1 construct: gene ESRRG; His-tagged ERRγ LBD
T1 sequence (P62508 233-458 limits assumed): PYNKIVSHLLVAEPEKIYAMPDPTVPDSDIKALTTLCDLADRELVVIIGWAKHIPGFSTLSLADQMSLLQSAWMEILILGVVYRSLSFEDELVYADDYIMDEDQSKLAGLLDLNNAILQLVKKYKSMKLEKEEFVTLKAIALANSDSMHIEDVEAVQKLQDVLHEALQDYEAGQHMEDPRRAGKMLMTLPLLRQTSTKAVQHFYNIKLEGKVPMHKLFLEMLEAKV
T1 sequence (Q9UBK2 1-798 partner): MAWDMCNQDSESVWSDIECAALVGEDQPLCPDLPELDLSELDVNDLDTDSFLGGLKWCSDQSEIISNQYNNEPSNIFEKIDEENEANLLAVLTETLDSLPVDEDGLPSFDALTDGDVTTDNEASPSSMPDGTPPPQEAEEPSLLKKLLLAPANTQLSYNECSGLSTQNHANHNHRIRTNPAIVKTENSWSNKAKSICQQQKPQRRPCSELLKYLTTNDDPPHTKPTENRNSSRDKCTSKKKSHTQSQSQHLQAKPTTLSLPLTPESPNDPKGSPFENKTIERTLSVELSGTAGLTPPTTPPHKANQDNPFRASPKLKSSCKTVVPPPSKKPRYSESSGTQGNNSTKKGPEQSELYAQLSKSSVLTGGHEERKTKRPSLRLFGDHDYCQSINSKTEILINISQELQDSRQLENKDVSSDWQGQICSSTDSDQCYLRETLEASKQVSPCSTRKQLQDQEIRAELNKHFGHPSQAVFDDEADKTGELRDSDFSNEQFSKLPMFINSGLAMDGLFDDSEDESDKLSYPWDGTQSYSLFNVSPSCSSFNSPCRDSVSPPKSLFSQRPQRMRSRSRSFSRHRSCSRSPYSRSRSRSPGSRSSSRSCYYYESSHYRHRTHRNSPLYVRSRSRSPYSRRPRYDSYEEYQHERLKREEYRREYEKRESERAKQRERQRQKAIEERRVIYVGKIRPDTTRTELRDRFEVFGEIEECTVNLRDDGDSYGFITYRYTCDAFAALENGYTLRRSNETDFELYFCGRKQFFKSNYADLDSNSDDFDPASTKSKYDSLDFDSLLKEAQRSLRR
Test: LanthaScreen TR-FRET PGC1a coactivator-binding assay (agonist)
Assay type: biochemical

Question: With `O=C1c2ccc(N3CCOCC3)cc2CN1c1ccc2[nH]c(-c3ccc(Br)cc3)nc2c1` [T112, 2-[2-(4-bromophenyl)-1H-benzimidazol-5-yl]-5-(morpholin-4-yl)-2,3-dihydro-1H-isoindol-1-one] as the molecule, how does the “LanthaScreen TR-FRET PGC1a coactivator-binding assay (agonist)” value read?
Answer: Its value is “to have ERRγ-agonistic activity with stronger effects than the commercially available ERRγ agonist GSK4716”.
